Source: patent US6750330B1, “Lyophilized tubulins” (priority 1998, dated 2004)

System: MAP-rich tubulin
Assay: 96-well plate polymerization assay of tubulin ligands with lyophilized active tubulin
Format: biochemical, bovine
Settings: for rate of polymerization with increasing concentration: 20 minutes at 24° C., 100 μg/well MAP-rich tubulin; for effect on microtubule polymerization (O.D. 340 nm): 60 minutes at 24° C., 96-well plate
Method: The dried powder was resuspended to 1 mg/ml protein in the G-PEM buffer that contained different tubulin ligands. The reactions were incubated at 24° C. and the optical density was determined between T=O and T=60 min. Wells A1, A2—duplicate control reactions; wells B1, B2—Duplicate 3 uM nocodazole reactions, and wells C1, C2—Duplicate 3 uM paclitaxel reactions. Other duplicate wells contained buffer with a random concentration of nocodazole between 0-30 uM.
Similar protocols were performed as in FIG. 9 legend except that paclitaxel was present at different concentrations and assays were performed in triplicate. Average nucleation (Onset) times, polymerization rates and maximum OD340 nm were compared to the control reactions (no drug) using CytoDYNAMIX Screen™ data analysis package (Cytoskeleton, Inc.).
Similar protocols were performed as in FIG. 9 legend except that nocodazole was present at different concentrations and assays were performed in triplicate. Average nucleation (Onset) times, polymerization rates and maximum OD340 nm were compared to the control reactions (no drug) using CytoDYNAMIX Screen™ data analysis package (Cytoskeleton, Inc.).
Nocodazole is similarly used as a negative control since it depolymerizes microtubules. Substances that may potentially have an effect on microtubule polymerization can be assayed by this method in which the optical density was measured at 340 nm over 60 minutes at a temperature sufficient to support polymerization (i.e., 15-45° C., preferably 24° C. for MAP-rich or 37° C. for pure tubulin).
MAP-rich tubulin (100 μg/well) was lyophilized under the optimal conditions described in Example 1, in a 96-well plate. Ninety-six wells in a 96-well plate of lyophilized tubulin can be simultaneously reconstituted and their polymerization measured (See FIG. 8). […] In a similar manner, using an 8-channel hand held pipettor, various random nocodazole concentrations were tested for activity. In addition, controls were added to the assay. […] Nocodazole was similarly used as a negative control since it depolymerizes microtubules. The optical density was measured at 340 nm over 60 minutes at 24° C. as an indication of microtubule polymerization (See FIG. 9).
Paclitaxel and nocodazole, anti-tumor agents, were assayed in G-PER buffer with lyophilized active tubulin.

## COC(=O)Nc1nc2ccc(C(=O)c3cccs3)cc2[nH]1 [nocodazole]
  rate of polymerization with increasing concentration: decrease in the rate of polymerization
  effect on microtubule polymerization (O.D. 340 nm): negative

## CC(=O)O[C@H]1C(=O)[C@@]2(C)[C@H]([C@H](OC(=O)c3ccccc3)[C@]3(O)C[C@H](OC(=O)[C@H](O)[C@@H](NC(=O)c4ccccc4)c4ccccc4)C(C)=C1C3(C)C)[C@]1(OC(C)=O)CO[C@@H]1C[C@@H]2O [paclitaxel]
  rate of polymerization with increasing concentration: increased rate of polymerization
  effect on microtubule polymerization (O.D. 340 nm): enhancing
